Data: article PMC7901654, “Bioisosteric Discovery of NPA101.3, a Second-Generation RET/VEGFR2 Inhibitor Optimized for Single-Agent Polypharmacology” (Journal of Medicinal Chemistry, 2020)

Tests used:
Format in all cases: cell-based
Lc-2/ad = experiment: Cell growth curves, human cells; conditions: LADC, CCDC6-RET, read-out: IC50 (95% CI), growth inhibition
Procedure: (§1) The IC50 dose for all human RET-negative cells was >100.0 nM, confirming compound selectivity (Figure S8 and Table S4).
(§2) Nthy-ory-3-1 (10000 per well), TPC-1 (10000 per well), MZ-CRC-1 (100000 per well), TT (200000 per well), Lc-2/ad (100000 per well), BCPAP (10000 per well), 8505-C (10000 per well), PC-9 (10000 per well), A549 (10000 per well), CALU-1 (10000 per well), NIH3T3 RET/C634Y (10000 per well), and NIH3T3 HRAS/G12V (10000 per well) were seeded in six-well tissue culture plates. Cells were kept in 2% (TPC-1), 5% (Nthy-ori-3-1), or 10% (BCPAP, 8505-C, CALU-1, A549, PC-9, TT, MZ-CRC-1, and Lc-2/ad) fetal calf serum or in 2% (NIH3T3 RET/C634Y and HRAS/G12V) calf serum. Ba/F3 cells (200000 per well in 2 mL) were seeded in six-well tissue culture plates and kept in 10% fetal calf serum. The day after plating, different concentrations of the drug or vehicle were added to the medium and changed every 2–3 days. Cells were counted every day (Ba/F3), every 2 days (fibroblasts), or every 2–3 days (human cell lines). To compare cell growth, we performed an unpaired Student’s t test using the Instat software program (Graphpad Software Inc.). All P values were two-sided, and differences were considered to be statistically significant at P < 0.02. IC50 doses were calculated through a curve fitting analysis from last day of growth curves using the PRISM software program (Graphpad Software Inc.).
(§3) Supplementary Table S4: NPA101.3 growth inhibitory effect on human cells.
(§4) *MTC (medullary thyoroid carcinoma); PTC (papillary thyroid carcinoma); ATC
(§5) (anaplastic thyroid carcinoma); LADC (lung adenocarcinoma)

MZ-CRC-1 = experiment: Cell growth curves, human cells; conditions: MZ-CRC-1, MTC, RET M918T, read-out: IC50 (95% CI), growth inhibition
Procedure: as §1, §2, §3, §4, §5

TT = experiment: Cell growth curves, human cells; conditions: MTC, RET C634W, read-out: IC50 (95% CI), growth inhibition
Procedure: as §1, §2, §3, §4, §5

human RET-negative cells = experiment: Cell growth curves, human RET-negative cells taken together; conditions: read-out: IC50 dose, all human RET-negative cells
Procedure: as §1
as §2, with “All P values were two-sided, and differences were considered to be statistically significant at P < 0.02.” left out

[1] = tested on: cells negative for RET oncogenes; experiment: Growth inhibition, cells negative for RET oncogenes (summary); conditions: doses of ≤100 nM
Procedure: Finally, NPA101.3 featured efficacy already at 1 mg/kg/day in RET-driven tumors in nude mice. […] Therefore, though in a therapeutic setting toxicity may be increased by hitting multiple targets, it is feasible that the activity of the NPA101.3 against RET-driven tumors may take advantage of a synergistic combination of cell autonomous (on tumor cell growth mediated by RET inhibition) and non-cell autonomous (on blood vessel formation mediated by VEGFR2 inhibition) effects, potentiating its effect and reducing the chances of resistance development. Several TKIs with anti-RET activity are available, and some are already registered for the treatment of different types of thyroid cancers. […]
Nthy-ory-3-1 (10000 per well), TPC-1 (10000 per well), MZ-CRC-1 (100000 per well), TT (200000 per well), Lc-2/ad (100000 per well), BCPAP (10000 per well), 8505-C (10000 per well), PC-9 (10000 per well), A549 (10000 per well), CALU-1 (10000 per well), NIH3T3 RET/C634Y (10000 per well), and NIH3T3 HRAS/G12V (10000 per well) were seeded in six-well tissue culture plates. […] Cells were counted every day (Ba/F3), every 2 days (fibroblasts), or every 2–3 days (human cell lines). […] IC50 doses were calculated through a curve fitting analysis from last day of growth curves using the PRISM software program (Graphpad Software Inc.).

NIH3T3 RET/C634Y cells = experiment: Phosphorylation and signalling Western blot in NIH3T3 RET/C634Y cells; conditions: 10.0 nM, 2 h
Procedure: Protein lysates were prepared according to standard procedures. Briefly, cells were lysed in a buffer containing 50 mM N-2-hydroxyethylpiperazine-N′-2-ethanesulfonic acid (HEPES; pH 7.5), 1% (v/v) Triton X-100, 150 mM NaCl, 5 mM EGTA, 50 mM NaF, 20 mM sodium pyrophosphate, 1 mM sodium vanadate, 2 mM phenylmethanesulfonyl fluoride (PMSF), and 1 μg/mL aprotinin. Lysates were clarified by centrifugation at 10000g for 15 min. […] Immune complexes were detected with the enhanced chemiluminescence kit (Amersham Pharmacia Biotech, Little Chalfont, U.K.). Anti-phospho-SHC (#Y317), which recognizes SHC protein when phosphorylated on Y317, was from Upstate Biotechnology Inc. (Lake Placid, NY). Anti-SHC (H-108) was from Santa Cruz Biotechnology (Santa Cruz, CA). Anti-MAPK (9101) and anti-phospho-MAPK (9102), specific for p42/44MAPK (ERK1/2) phosphorylated on Thr202/Tyr204, antibodies were from Cell Signaling Technologies (Danvers, MA). Anti-phospho-VEGFR2/KDR (2478), specific for VEGFR2/KDR phosphorylated on Tyr1175, and anti-VEGFR2/KDR (2479) were from Cell Signaling Technologies. Anti-phospho-p70S6K (9234), specific for p70S6K phosphorylated on Thr389, and anti-p70S6K (2708) were from Cell Signaling Technologies. […]

SMILES: CC(C)(C)c1cc(NC(=O)Cc2ccc(-n3cnc4cc(-c5ccc(S(C)(=O)=O)cc5)ccc43)cc2)no1 [NPA101.3]
- IC50 (Lc-2/ad): 3.6 nM
- IC50 (MZ-CRC-1): 2.21 nM
- IC50 (TT): 2.19 nM
- IC50 (human RET-negative cells): > 100 nM
- growth effect in cells negative for RET oncogenes [1]: no detectable effect
- phosphorylation of MAPK (NIH3T3 RET/C634Y cells): attenuated
- phosphorylation of RET and SHC (NIH3T3 RET/C634Y cells): almost completely inhibited
